Laboratory results published in patent publication US20220265817A1, “THERAPEUTIC COMPOSITIONS AND METHODS FOR TREATING HEPATITIS B” (priority 2017, published 2022).

Tests used:
hepatitis B virus (HBV) [1] = test: Humanized liver chimeric mouse model of chronic HBV infection, serum HBsAg by EIA; assay type: in vivo; conditions: mean ± SEM
Description: This work was conducted in a well-established humanized liver chimeric mouse model of chronic hepatitis B virus (HBV) infection (Tsuge et al., Hepatology, 42(5), 1046-54 (2005)). A persistent level of HBV infection was established in the animals prior to the treatment phase which started at Day 0.
The anti-HBV effects were assessed based on serum HBsAg levels using the GS HBsAg EIA 3.0 enzyme linked immunosorbent assay kit from Bio-Rad Laboratories as per manufacturer instructions; and serum HBV DNA levels measured from total extracted DNA using a quantitative PCR assay (primer/probe sequences from Tanaka et al., Journal of Medical Virology, 72, 223-229 (2004)).

hepatitis B virus (HBV) [2] = test: Mouse model of HBV (pHBV1.3 hydrodynamic injection), serum HBV DNA quantitative PCR; assay type: in vivo, NOD.CB17-Prkdc^scid/J mice
Description: On Day −7, 10 micrograms of the plasmid pHBV1.3 (as per Guidotti, L., et al., Journal of Virology, 1995, 69(10): 6158-6169) was administered to NOD.CB17-Prkdc^scid/J mice via hydrodynamic injection (HDI; rapid 1.6 mL injection into the tail vein). […] As a readout of the anti-HBV effect of various treatments, serum HBV DNA concentration in mice was measured from total extracted DNA using a quantitative PCR assay (primer/probe sequences from Tanaka, Y., et al., Journal of Medical Virology, 2004, 72: 223-229).
Animals were treated with Compound 3 as follows: Starting on Day 0, a 50 mg/kg or 100 mg/kg dosage of Compound 3 was administered orally to animals on a twice-daily frequency for a total of fourteen doses between Days 0 and 7. Compound 3 was dissolved in a co-solvent formulation for administration. Negative control animals were administered either the co-solvent formulation alone, or saline. Animals were treated with lipid nanoparticle (LNP)-encapsulated HBV-targeting siRNAs as follows: On Day 0, an amount of test article equivalent to 0.1 mg/kg siRNA was administered intravenously.
The effect of these treatments was determined by collecting blood on Days 0 (pre-treatment), 4 & 7 and analyzing it for serum HBV DNA content.
Animals were treated with Compound 3 as follows: Starting on Day 0, a 100 mg/kg dosage of Compound 3 was administered orally to animals on a twice-daily frequency for a total of fourteen doses between Days 0 and 7. Compound 3 was dissolved in a co-solvent formulation for administration. Negative control animals were administered either the co-solvent formulation alone, or saline. Animals were treated with ETV as follows: Starting on Day 0, either a 100 ng/kg or a 300 ng/kg dosage of ETV was administered orally to animals on a once-daily frequency for a total of seven doses between Days 0 and 6. ETV was dissolved in DMSO to 2 mg/mL and then diluted in saline for administration.
The effect of these treatments was determined by collecting blood on Days 0 (pre-treatment), 4 & 7 and analyzing it for serum HBV DNA content. Samples with Ct values below the lower limit of quantitation (LLOQ) were set to one-half LLOQ for calculation of group means.

[3] = Day 21, Compound 3 oral 100 mg/kg twice daily, SIRNA-NP iv 3 mg/kg every 2 weeks, ETV oral 1.2 μg/kg daily, pegIFN α-2a sc 30 μg/kg twice a week

Compound | Serum HBsAg (hepatitis B virus (HBV) [1]; Day 0 (start of treatment)) | Serum HBsAg (hepatitis B virus (HBV) [1]; [3]) | Serum HBV DNA, % of individual pre-treatment baseline (Day 0) (hepatitis B virus (HBV) [2]; Example 2, Day 4, Compound 3 50 mg/kg oral twice daily, mean ± SEM) | Serum HBV DNA, % of individual pre-treatment baseline (Day 0) (hepatitis B virus (HBV) [2]; Example 2, Day 4, Compound 3 100 mg/kg oral twice daily) | Serum HBV DNA, % of individual pre-treatment baseline (Day 0) (hepatitis B virus (HBV) [2]; Example 2, Day 7, Compound 3 50 mg/kg oral twice daily) | Serum HBV DNA, % of individual pre-treatment baseline (Day 0) (hepatitis B virus (HBV) [2]; Example 2, Day 7, Compound 3 100 mg/kg oral twice daily) | Serum HBV DNA, % of individual pre-treatment baseline (Day 0) (hepatitis B virus (HBV) [2]; Example 3, Day 4, Compound 3 100 mg/kg oral twice daily, mean ± SEM) | Serum HBV DNA, % of individual pre-treatment baseline (Day 0) (hepatitis B virus (HBV) [2]; Example 3, Day 7, Compound 3 100 mg/kg oral twice daily) | Serum HBV DNA, % of individual pre-treatment baseline (Day 0) (hepatitis B virus (HBV) [2]; Example 3, Day 4, ETV 100 ng/kg oral once daily) | Serum HBV DNA, % of individual pre-treatment baseline (Day 0) (hepatitis B virus (HBV) [2]; Example 3, Day 4, ETV 300 ng/kg oral once daily) | Serum HBV DNA, % of individual pre-treatment baseline (Day 0) (hepatitis B virus (HBV) [2]; Example 3, Day 7, ETV 100 ng/kg oral once daily) | Serum HBV DNA, % of individual pre-treatment baseline (Day 0) (hepatitis B virus (HBV) [2]; Example 3, Day 7, ETV 300 ng/kg oral once daily)
CC[C@@H](C)NS(=O)(=O)c1ccc(F)c(C(=O)Nc2ccc(F)c(F)c2)c1 [Compound 3] | 2965 ± 616 IU/mL | 4158 ± 355 IU/mL | 13 ± 4% | 8.6 ± 1.5% | 33 ± 9% | 12 ± 5% | 9.3 ± 2.5% | 1.2 ± 0.3% | – | – | – | –
C=C1[C@H](CO)[C@@H](O)C[C@@H]1n1cnc2c(=O)[nH]c(N)nc21 [Entecavir] | 2649 ± 282 IU/mL | 2975 ± 629 IU/mL | – | – | – | – | – | – | 21 ± 5% | 1.6 ± 0.3% | 3.5 ± 0.7% | 0.88 ± 0.31%
